Reference: ChEMBL document CHEMBL1153590 (Bioorg Med Chem Lett, 2009)
Calls of active or inactive are those of the source. No cut-off for these calls is given here.

Columns and labels:
[1] = Inhibition of tubulin assembly
[2] = Displacement of fluorescent N-AB-PT from tubulin by spectrofluorimetry
[3] = test system: A2780; test: Cytotoxicity against human A2780 cells after 4 days by sulforhodamine B assay; type: functional, cell-based; conditions: A2780, 96 h
[4] = test system: PC-3; test: Cytotoxicity against human PC3 cells after 4 days by sulforhodamine B assay; type: functional, cell-based; conditions: PC-3, 96 h
[5] = test system: P388; test: Ratio of docetaxel to compound in cytotoxic activity against mouse P388 cells; type: functional
[6] = Ratio of paclitaxel Kd to compound Kd for displacement of fluorescent N-AB-PT from tubulin
[7] = Ratio of compound ED50 to paclitaxel ED50 for inhibition of tubulin assembly
[8] = test system: A2780; test: Ratio of compound IC50 to paclitaxel IC50 for cytotoxic activity against human A2780 cells; type: functional
[9] = test system: PC-3; test: Ratio of compound IC50 to paclitaxel IC50 for cytotoxic activity against human PC3 cells; type: functional
[10] = Effect on tubulin polymerization at 50 uM by cold-induced disassembly assay

| ED50 [1] | Ka [2] | Ratio [6] | Ratio ED50 [7] | Activity [10] | Structure (SMILES) | IC50 [3] | IC50 [4] | Ratio [5] | Ratio IC50 [8] | Ratio IC50 [9] |
| --- | --- | --- | --- | --- | --- | --- | --- | --- | --- | --- |
| 0.43 µM | 1.11e+07 M⁻¹ |  |  |  | COC(=O)N[C@@H](c1ccccc1)[C@@H](O)C(=O)O[C@H]1C[C@@]2(O)[C@@H](OC(=O)c3ccccc3)[C@@H]3[C@]4(OC(C)=O)CO[C@@H]4C[C@H](O)[C@@]3(C)C(=O)[C@H](OC(C)=O)C(=C1C)C2(C)C | 9 nM | 2 nM | 150 |  |  |
| 0.48 µM | 4.76e+07 M⁻¹ |  |  |  | CC(=O)O[C@H]1C(=O)[C@@]2(C)[C@H]([C@H](OC(=O)c3ccccc3)[C@]3(O)C[C@H](OC(=O)[C@H](O)[C@@H](NC(=O)c4ccccc4)c4ccccc4)C(C)=C1C3(C)C)[C@]1(OC(C)=O)CO[C@@H]1C[C@@H]2O [PACLITAXEL] |  | 1.4 nM |  |  |  |
| > 25 µM |  | 150 | 50 | inactive | CC(=O)O[C@H]1C(=O)[C@@]2(C)[C@H]([C@H](OC(=O)c3ccccc3)[C@]3(O)C[C@H](OC(=O)[C@H](O)[C@H]4NC(=O)Oc5ccccc54)C(C)=C1C3(C)C)[C@]1(OC(C)=O)CO[C@@H]1C[C@@H]2O | > 20000 nM | > 5000 nM |  | 1900 | 1900 |
|  |  |  | 5.1 |  | CC(=O)O[C@H]1C(=O)[C@@]2(C)[C@H]([C@H](OC(=O)c3ccccc3)[C@@]3(O)C[C@@H](OC(=O)[C@@H](O)[C@@H](NC(=O)c4ccccc4)c4ccccc4C)C(C)=C1C3(C)C)[C@@]1(OC(C)=O)CO[C@@H]1C[C@@H]2O (stereo in doubt) |  |  |  |  |  |
